One assay concerns the target T1, human orexin-1 receptor (Homo sapiens, UniProt O43613).
T1 construct: expressed in transfected cells; host or cells: CHO (Chinese hamster ovary) cells, kept under G418 selection
T1 sequence (O43613 1-425): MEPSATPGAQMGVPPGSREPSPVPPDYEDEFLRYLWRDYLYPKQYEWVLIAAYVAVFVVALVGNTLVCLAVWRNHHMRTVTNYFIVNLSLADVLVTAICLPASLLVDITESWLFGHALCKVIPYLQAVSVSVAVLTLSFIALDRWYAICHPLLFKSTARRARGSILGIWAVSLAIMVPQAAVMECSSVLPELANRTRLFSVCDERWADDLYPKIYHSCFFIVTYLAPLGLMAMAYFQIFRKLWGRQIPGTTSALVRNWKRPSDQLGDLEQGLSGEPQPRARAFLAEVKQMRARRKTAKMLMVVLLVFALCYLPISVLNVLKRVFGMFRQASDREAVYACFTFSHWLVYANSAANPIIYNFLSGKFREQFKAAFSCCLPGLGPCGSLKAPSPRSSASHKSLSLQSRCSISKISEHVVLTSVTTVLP
Description: Intracellular calcium measurement (FLIPR Tetra), orexin receptor antagonistic activity, OX1. It counts as cell-based. The following applies: CHO cells expressing human orexin-1 receptor, 3 nM orexin-A. On the procedure: (§1) The orexin receptor antagonistic activity of the compounds of formula (I) is determined in accordance with one of the following experimental methods.
(§2) Chinese hamster ovary (CHO) cells expressing the human orexin-1 receptor and the human orexin-2 receptor, respectively, are grown in culture medium (Ham F-12 with L-Glutamine) containing 300 μg/ml G418, 100 U/ml penicillin, 100 μg/ml streptomycin and 10% heat inactivated fetal calf serum (FCS). The cells are seeded at 20,000 cells/well into 384-well black clear bottom sterile plates (Greiner). The seeded plates are incubated overnight at 37° C. in 5% CO2.
(§3) Human orexin-A as an agonist is prepared as 1 mM stock solution in MeOH:water (1:1), diluted in HBSS containing 0.1% bovine serum albumin (BSA), NaHCO3: 0.375 g/l and 20 mM HEPES for use in the assay at a final concentration of 3 nM. Antagonists are prepared as 10 mM stock solution in DMSO, then diluted in 384-well plates, first in DMSO, then in HBSS containing 0.1% bovine serum albumin (BSA), NaHCO3: 0.375 g/l and 20 mM HEPES.
(§4) On the day of the assay, 50 μl of staining buffer (HBSS containing 1% FCS, 20 mM HEPES, NaHCO3: 0.375 g/l, 5 mM probenecid (Sigma) and 3 μM of the fluorescent calcium indicator fluo-4 AM (1 mM stock solution in DMSO, containing 10% pluronic) is added to each well.
(§5) The 384-well cell-plates are incubated for 50 min at 37° C. in 5% CO2 followed by equilibration at RT for 30-120 min before measurement.
(§6) Within the Fluorescent Imaging Plate Reader (FLIPR Tetra, Molecular Devices), antagonists are added to the plate in a volume of 10 μl/well, incubated for 10 min and finally 10 μl/well of agonist is added. Fluorescence is measured for each well at 1 second intervals, and the height of each fluorescence peak is compared to the height of the fluorescence peak induced by 3 nM orexin-A with vehicle in place of antagonist. For each antagonist, the IC50 value (the concentration of compound needed to inhibit 50% of the agonistic response) is determined and may be normalized using the obtained IC50 value of a on-plate reference compound (normalized values in Table 1 are indicated by an asterisk *). With the FLIPR Tetra, two different conditions (conditions A and conditions B) were used, differing in adjustment of pipetting speed and cell splitting regime. The calculated IC50 values of the compounds may fluctuate depending on the daily cellular assay performance. Fluctuations of this kind are known to those skilled in the art.

In another assay the target is T2, human orexin-2 receptor (Homo sapiens, UniProt O43614).
T2 construct: expressed in transfected cells; host or cells: CHO (Chinese hamster ovary) cells, kept under G418 selection
T2 sequence (O43614 1-444): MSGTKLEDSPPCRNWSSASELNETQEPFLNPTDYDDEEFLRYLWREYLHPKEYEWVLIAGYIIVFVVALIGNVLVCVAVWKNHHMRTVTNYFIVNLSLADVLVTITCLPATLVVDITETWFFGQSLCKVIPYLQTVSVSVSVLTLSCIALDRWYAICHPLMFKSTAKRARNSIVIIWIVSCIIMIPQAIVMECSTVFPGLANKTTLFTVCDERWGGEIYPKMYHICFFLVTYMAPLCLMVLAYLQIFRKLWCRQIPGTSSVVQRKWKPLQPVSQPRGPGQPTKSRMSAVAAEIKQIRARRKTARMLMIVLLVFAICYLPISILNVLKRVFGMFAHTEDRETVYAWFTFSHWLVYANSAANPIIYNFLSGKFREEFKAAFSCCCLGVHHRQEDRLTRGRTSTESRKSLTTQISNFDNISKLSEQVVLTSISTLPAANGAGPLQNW
Description: Intracellular calcium measurement (FLIPR Tetra), orexin receptor antagonistic activity, OX2. It counts as cell-based. The following applies: CHO cells expressing human orexin-2 receptor, 3 nM orexin-A. The method, then:
as §1, §2, §3, §4, §5, §6

Some results are limits rather than exact numbers.

With `COc1ccc(C(O)CN(CC2CC2)C(=O)c2nccnc2-c2ccccc2)cc1OC` (stereo not shown) [Example 99, 3-Phenyl-pyrazine-2-carboxylic acid cyclopropylmethyl-[2-(3,4-dimethoxy-phenyl)-2-hydroxy-ethyl]-amide], the half-maximal inhibitory concentration (IC50) on human orexin-1 receptor (conditions A) is greater than 10000 nM; on human orexin-2 receptor (conditions A), 41 nM.

As to `COc1ccc(CCN(C)C(=O)c2nc(N)sc2-c2cccc(C)c2)cc1OC` [Example 104, 2-Amino-5-m-tolyl-thiazole-4-carboxylic acid [2-(3,4-dimethoxy-phenyl)-ethyl]-methyl-amide], the IC50 worked out at 405 nM on human orexin-1 receptor (conditions B) and 5 nM at human orexin-2 receptor (conditions B).

As to `CCN(CCc1ccc(OC)c(OC)c1)C(=O)c1nc(N)sc1-c1cccc(C)c1` [Example 107, 2-Amino-5-m-tolyl-thiazole-4-carboxylic acid [2-(3,4-dimethoxy-phenyl)-ethyl]-ethyl-amide], the IC50 was determined as 41 nM at human orexin-1 receptor (conditions B) and 2 nM on human orexin-2 receptor (conditions B).

As to `CCN(CCc1ccc(OC)c(OC)c1)C(=O)c1nc(C)sc1-c1ccc(C)c(C)c1` [Example 108, 5-(3,4-Dimethyl-phenyl)-2-methyl-thiazole-4-carboxylic acid [2-(3,4-dimethoxy-phenyl)-ethyl]-ethyl-amide], the IC50 on human orexin-1 receptor (conditions B) came to 36 nM; on human orexin-2 receptor (conditions B), 5 nM.

Consider `CCCN(CCc1ccc(OC)c(OC)c1)C(=O)c1nc(C)sc1-c1cccc(F)c1` [Example 109, 5-(3-Fluoro-phenyl)-2-methyl-thiazole-4-carboxylic acid [2-(3,4-dimethoxy-phenyl)-ethyl]-propyl-amide], for which the values for the concentration for half-maximal inhibition (IC50) at human orexin-1 receptor (conditions B) and on human orexin-2 receptor (conditions B) were 479 nM and 6 nM, respectively.

Take `CCCN(CCc1ccc(OC)c(OC)c1)C(=O)c1nc(N)sc1-c1cccc(C)c1` [Example 110, 2-Amino-5-m-tolyl-thiazole-4-carboxylic acid [2-(3,4-dimethoxy-phenyl)-ethyl]-propyl-amide]: the IC50 on human orexin-1 receptor (conditions B) worked out at 21 nM; on human orexin-2 receptor (conditions B), 2 nM.

On to `CCCN(CCc1ccc(OC)c(OC)c1)C(=O)c1nc(C)sc1-c1ccc(C)c(C)c1` [Example 111, 5-(3,4-Dimethyl-phenyl)-2-methyl-thiazole-4-carboxylic acid [2-(3,4-dimethoxy-phenyl)-ethyl]-propyl-amide], for which the IC50 came out at 18 nM on human orexin-1 receptor (conditions B) and 2 nM on human orexin-2 receptor (conditions B).

Turning to `COc1ccc(CCN(CC(C)C)C(=O)c2nc(N)sc2-c2cccc(C)c2)cc1OC` [Example 113, 2-Amino-5-m-tolyl-thiazole-4-carboxylic acid [2-(3,4-dimethoxy-phenyl)-ethyl]-isobutyl-amide], the half-maximal inhibitory concentration (IC50) at human orexin-1 receptor (conditions B) is 328 nM; at human orexin-2 receptor (conditions B) it was 8 nM.

As for `COc1ccc(CCN(CC(F)(F)F)C(=O)c2nc(N)sc2-c2cccc(C)c2)cc1OC` [Example 119, 2-Amino-5-m-tolyl-thiazole-4-carboxylic acid [2-(3,4-dimethoxy-phenyl)-ethyl]-(2,2,2-trifluoro-ethyl)-amide], the half-inhibitory concentration (IC50) turned out to be 149 nM at human orexin-1 receptor (conditions B) and 4 nM at human orexin-2 receptor (conditions B).

`COc1ccc(CCN(CC(F)(F)F)C(=O)c2nc(C)sc2-c2ccc(C)c(C)c2)cc1OC` [Example 120, 5-(3,4-Dimethyl-phenyl)-2-methyl-thiazole-4-carboxylic acid [2-(3,4-dimethoxy-phenyl)-ethyl]-(2,2,2-trifluoro-ethyl)-amide]: the IC50 at human orexin-1 receptor (conditions B) was 119 nM; at human orexin-2 receptor (conditions B), 6 nM.

Take `COc1ccc(CCN(C(=O)c2nc(N)sc2-c2cccc(C)c2)C2CC2)cc1OC` [Example 122, 2-Amino-5-m-tolyl-thiazole-4-carboxylic acid cyclopropyl-[2-(3,4-dimethoxy-phenyl)-ethyl]-amide]: the IC50 was 15 nM at human orexin-1 receptor (conditions B) and 2 nM at human orexin-2 receptor (conditions B).

`COc1ccc(CCN(C(=O)c2nc(C)sc2-c2ccc(C)c(C)c2)C2CC2)cc1OC` [Example 123, 5-(3,4-Dimethyl-phenyl)-2-methyl-thiazole-4-carboxylic acid cyclopropyl-[2-(3,4-dimethoxy-phenyl)-ethyl]-amide]: the half-maximal inhibitory concentration (IC50) was 26 nM on human orexin-1 receptor (conditions B) and 4 nM on human orexin-2 receptor (conditions B).

`COc1ccc(CCN(CCO)C(=O)c2nc(C)sc2-c2cccc(F)c2)cc1OC` [Example 124, 5-(3-Fluoro-phenyl)-2-methyl-thiazole-4-carboxylic acid [2-(3,4-dimethoxy-phenyl)-ethyl]-(2-hydroxy-ethyl)-amide]: the 50% inhibitory concentration (IC50) on human orexin-1 receptor (conditions B) came to 1470 nM; at human orexin-2 receptor (conditions B), 82 nM.

Regarding `COc1ccc(CCN(CCO)C(=O)c2nc(C)sc2-c2ccc(C)c(C)c2)cc1OC` [Example 126, 5-(3,4-Dimethyl-phenyl)-2-methyl-thiazole-4-carboxylic acid [2-(3,4-dimethoxy-phenyl)-ethyl]-(2-hydroxy-ethyl)-amide], the IC50 at human orexin-1 receptor (conditions B) was 170 nM; on human orexin-2 receptor (conditions B) it was 4 nM.

On to `COCCN(CCc1ccc(OC)c(OC)c1)C(=O)c1nc(C)sc1-c1cccc(F)c1` [Example 127, 5-(3-Fluoro-phenyl)-2-methyl-thiazole-4-carboxylic acid [2-(3,4-dimethoxy-phenyl)-ethyl]-(2-methoxy-ethyl)-amide], for which the results for the IC50 at human orexin-1 receptor (conditions B) and on human orexin-2 receptor (conditions B) were 1120 nM and 16 nM, respectively.

On to `COCCN(CCc1ccc(OC)c(OC)c1)C(=O)c1nc(N)sc1-c1cccc(C)c1` [Example 128, 2-Amino-5-m-tolyl-thiazole-4-carboxylic acid [2-(3,4-dimethoxy-phenyl)-ethyl]-(2-methoxy-ethyl)-amide], for which the half-inhibitory concentration (IC50) on human orexin-1 receptor (conditions B) worked out at 71 nM; at human orexin-2 receptor (conditions B), 4 nM.

As to `COCCN(CCc1ccc(OC)c(OC)c1)C(=O)c1nc(C)sc1-c1ccc(C)c(C)c1` [Example 129, 5-(3,4-Dimethyl-phenyl)-2-methyl-thiazole-4-carboxylic acid [2-(3,4-dimethoxy-phenyl)-ethyl]-(2-methoxy-ethyl)-amide], the IC50 at human orexin-1 receptor (conditions B) was 40 nM; at human orexin-2 receptor (conditions B), 5 nM.

Take `COc1ccc(CCN(CCN(C)C)C(=O)c2nc(N)sc2-c2cccc(C)c2)cc1OC` [Example 130, 2-Amino-5-m-tolyl-thiazole-4-carboxylic acid [2-(3,4-dimethoxy-phenyl)-ethyl]-(2-dimethylamino-ethyl)-amide]: the IC50 is greater than 10000 nM at human orexin-1 receptor (conditions B) and 279 nM at human orexin-2 receptor (conditions B).

`COc1ccc(CCN(CC(N)=O)C(=O)c2nc(C)sc2-c2cccc(F)c2)cc1OC` [Example 131, 5-(3-Fluoro-phenyl)-2-methyl-thiazole-4-carboxylic acid carbamoylmethyl-[2-(3,4-dimethoxy-phenyl)-ethyl]-amide]: the IC50 is greater than 10000 nM on human orexin-1 receptor (conditions B) and 49 nM on human orexin-2 receptor (conditions B).

In the case of `COc1ccc(CCN(CC(=O)N(C)C)C(=O)c2nc(N)sc2-c2cccc(C)c2)cc1OC` [Example 135, 2-Amino-5-m-tolyl-thiazole-4-carboxylic acid [2-(3,4-dimethoxy-phenyl)-ethyl]-dimethylcarbamoylmethyl-amide], the figures for the IC50 on human orexin-1 receptor (conditions B) and at human orexin-2 receptor (conditions B) were greater than 10000 nM and 145 nM, respectively.
